Target: PNKP (polynucleotide kinase 3'-phosphatase); purified recombinant PNKP (Homo sapiens, UniProt Q96T60)
Assay: intrinsic tryptophan fluorescence quenching titration
Assay type: binding

Kd: 525 ± 25 nM
Compound: O=P(O)(O)OC[C@H]1O[C@@](CO)(OP(=O)(O)O)[C@@H](O)[C@@H]1O [F2,6BP]
